Laboratory results taken from the supplement of paper PMC10307832.

How the values were obtained:
Experiment in all cases: relative viability (nuclei count vs DMSO), 5 days (fraction); higher = more cells survive
[1] = compound: C=CCNC1=C2C[C@@H](C)C[C@H](OC)[C@H](O)[C@@H](C)/C=C(\C)[C@H](OC(N)=O)[C@@H](OC)/C=C\C=C(/C)C(=O)NC(=CC1=O)C2=O [17-AAG] + O=C(c1cc(Cc2n[nH]c(=O)c3ccccc23)ccc1F)N1CCN(C(=O)C2CC2)CC1 [Olaparib] (partner 8 µM)
Outline: (§1)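 Values are medians from duplicate plates. Each reflects relative viability, defined as the nuclei count of treated wells over that of vehicle wells. Lung cancer cell lines in 1536-well plates were pin-tool dosed one day after seeding with one drug alone or with a fixed anchor-drug dose plus five library-drug doses (not always all listed) in √10 steps, then fixed, stained and imaged at 4× after 5 days.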

[2] = compound: C=CCNC1=C2C[C@@H](C)C[C@H](OC)[C@H](O)[C@@H](C)/C=C(\C)[C@H](OC(N)=O)[C@@H](OC)/C=C\C=C(/C)C(=O)NC(=CC1=O)C2=O [17-AAG] + COc1cc2c(Oc3ccc(NC(=O)C4(C(=O)Nc5ccc(F)cc5)CC4)cc3F)ccnc2cc1OCCCN1CCOCC1 [Foretinib] (partner 0.25 µM)
Outline: as §1

[3] = compound: C=CCNC1=C2C[C@@H](C)C[C@H](OC)[C@H](O)[C@@H](C)/C=C(\C)[C@H](OC(N)=O)[C@@H](OC)/C=C\C=C(/C)C(=O)NC(=CC1=O)C2=O [17-AAG] + Nc1nc2[nH]cc(CCc3ccc(C(=O)N[C@@H](CCC(=O)O)C(=O)O)cc3)c2c(=O)[nH]1 [Pemetrexed] (partner 0.2 µM)
Outline: as §1

[4] = compound: C=CCNC1=C2C[C@@H](C)C[C@H](OC)[C@H](O)[C@@H](C)/C=C(\C)[C@H](OC(N)=O)[C@@H](OC)/C=C\C=C(/C)C(=O)NC(=CC1=O)C2=O [17-AAG] + Cc1nc(NC(=O)N2CCC[C@H]2C(N)=O)sc1-c1ccnc(C(C)(C)C(F)(F)F)c1 [Alpelisib] (partner 2 µM)
Outline: as §1

Cell Line	relative viability ([1]; first compound 0.00128 µM)	relative viability ([1]; first compound 0.004048 µM)	relative viability ([1]; first compound 0.0128 µM)	relative viability ([1]; first compound 0.04048 µM)	relative viability ([1]; first compound 0.128 µM)	relative viability ([2]; first compound 0.00128 µM)	relative viability ([2]; first compound 0.004048 µM)	relative viability ([2]; first compound 0.0128 µM)	relative viability ([2]; first compound 0.04048 µM)	relative viability ([2]; first compound 0.128 µM)	relative viability ([3]; first compound 0.00128 µM)	relative viability ([3]; first compound 0.004048 µM)	relative viability ([3]; first compound 0.0128 µM)	relative viability ([3]; first compound 0.04048 µM)	relative viability ([3]; first compound 0.128 µM)	relative viability ([4]; first compound 0.00128 µM)	relative viability ([4]; first compound 0.004048 µM)	relative viability ([4]; first compound 0.0128 µM)	relative viability ([4]; first compound 0.04048 µM)	relative viability ([4]; first compound 0.128 µM)
NCI-H596	0.784	0.739	0.674	0.48	0.371	0.923	0.749	0.923	0.698	0.397	0.558	0.542	0.508	0.505	0.337	0.479	0.648	0.564	0.454	0.358
LK-2	0.831	0.765	0.266	0.149	0.123	1.09	1.11	1.21	1.26	0.25	0.266	0.292	0.211	0.101	0.0875	1.13	0.998	1.28	0.217	0.233
NCI-H1993	1.16	0.949	0.98	0.37	0.299	0.83	0.846	0.826	0.516	0.466	0.65	0.649	0.437	0.298	0.323	0.722	0.657	0.658	0.528	0.434
PC-14	0.298	0.132	0.0665	0.0524	0.0698	0.943	0.961	0.82	0.143	0.134	0.143	0.166	0.111	0.0924	0.0882	0.939	0.726	0.662	0.106	0.0874
NCI-H1437	0.626	0.609	0.285	0.194	0.173	1.21	1.22	1.09	0.259	0.193	0.348	0.37	0.246	0.214	0.154	0.959	0.929	0.88	0.107	0.122
NCI-H2170	0.663	0.565	0.466	0.129	0.12	0.961	1.01	0.955	0.607	0.328	0.256	0.27	0.262	0.152	0.139	0.821	0.723	0.426	0.244	0.178
LCLC-103H	0.841	0.745	0.755	0.823	0.831	0.874	0.818	0.736	0.932	1.01	0.452	0.48	0.461	0.557	0.61	1.05	0.974	0.998	0.996	1.11
NCI-H460	0.476	0.318	0.0627	0.0448	0.0462	0.983	0.907	0.063	0.0391	0.0257	0.0582	0.0712	0.0849	0.0247	0.0362	0.544	0.214	0.0127	0.0124	0.0122
SW 1573	0.441	0.234	0.182	0.113	0.0907	0.886	1.01	0.829	0.24	0.113	0.819	0.93	0.164	0.11	0.0923	0.817	0.716	0.648	0.158	0.109
BEN	1.06	1.03	1.01	0.666	0.358	0.626	0.767	0.649	0.517	0.411	0.756	0.882	0.716	0.526	0.247	1.02	0.978	1.04	0.84	0.257
LC-2-ad	0.751	0.728	0.643	0.475	0.225	0.891	0.898	0.515	0.343	0.261	0.298	0.257	0.248	0.219	0.209	0.955	0.863	0.747	0.167	0.0846
COR-L23	0.377	0.322	0.324	0.169	0.112	0.938	0.943	0.846	0.854	0.143	0.2	0.2	0.211	0.225	0.157	0.715	0.826	0.941	0.376	0.0924
SK-LU-1	0.512	0.439	0.301	0.153	0.173	0.863	0.566	0.167	0.143	0.127	0.999	0.63	0.28	0.27	0.19	0.961	0.327	0.188	0.237	0.165
NCI-H1915	0.263	0.268	0.233	0.129	0.0621	1.09	1.06	1.12	1.06	0.271	0.521	0.462	0.422	0.191	0.057	1.05	1.06	1.04	1.02	0.458
NCI-H647	0.575	0.237	0.0687	0.0686	0.0642	1.1	1.16	0.863	0.117	0.0874	0.203	0.179	0.102	0.0945	0.0923	1.29	0.605	0.0949	0.107	0.0714
